Tests used:
Debaryomyces hansenii = assay: Wood preservative efficacy against bacteria and yeasts, tryptose agar plates; type: cell-based; design: key: 0 = growth equal to control, 1 = inhibition, 2 = no growth
Method: Compositions were prepared by dissolving the compounds shown in Table 1 in 50% ethanol and further diluting with sterile distilled water. […] After cooling, the medium was inoculated with the bacteria listed below. After sufficient growth of the untreated cultures, the compounds were evaluated using the following rating system: 0=growth equal to control 1=inhibition of growth by the compound 2=no growth under the influence of the compound. In this Table, the higher numbers are the most preferred species. Debaryomyces hansenii (yeast)

Trichoderma viride = assay: Control of molds and blue stain fungi in stick test (beech sticks); details: minimum concentration producing a score less than or equal to 1; dosages 250-5000 ppm
Method: (§1) The compounds shown in Table 1 were dissolved in 50% ethanol and a dilution series was made using the same solvent. In 25 ml of each dilution, one oven-dried beech stick (73×18×2 mm) was drenched until saturated.
(§2) Test dosages were 50, 100, 250, 500, and 1000 ppm for blue stain fungi which were Aureobasidium pullulans and Sclerophoma pithyophila. Test dosages for the molds used (Trichoderma viride, Aspergillus niger) were 250, 500, 1000, 2500, and 5000 ppm.
(§3) After three hours the test solution was poured off and each stick was allowed to dry in a sterile laminar air flow. In each Petri dish one stick was placed on malt agar previously seeded with inoculum. Two drops of fungal or spore suspension were pipetted on the upper surface of the stick. The Petri dishes were then incubated at 22° C. and 90% relative humidity. The treated sticks were evaluated after sufficient growth of the fungus on the untreated control sticks. The following score system was used to rate the effectiveness of the compounds:
(§4) 0=stick free of fungal growth
(§5) 1=traces of fungal growth on stick
(§6) 2=slight fungal growth (5 to 25% of the surface covered)
(§7) 3=moderate fungal growth (25 to 50% of the surface covered)
(§8) 4=vigorous fungal growth (greater than 50% of the surface covered).
(§9) For purposes of comparison of these compounds, these values were converted to threshold ranges. The threshold value in this system is defined as the minimum concentration of a particular compound which produces a score less than or equal to 1.

Aspergillus niger = assay: as above; details: minimum concentration producing a score less than or equal to 1; dosages 250-5000 ppm
Method: as §1, §2, §3, §4, §5, §6, §7, §8, §9

Sclerophoma pithyophila = assay: as above; details: minimum concentration producing a score less than or equal to 1; dosages 50-1000 ppm
Method: as §1, §2, §3, §4, §5, §6, §7, §8, §9

Aureobasidium pullulans = assay: as above; details: minimum concentration producing a score less than or equal to 1; dosages 50-1000 ppm
Method: as §1, §2, §3, §4, §5, §6, §7, §8, §9

Coriolus versicolor = assay: Activity against wood-rotting fungi, weight loss of impregnated wood blocks; details: eight weeks at 22° C. and 70% relative humidity
Method: (§10) Sapwood blocks (50×20×6 mm) of Scots pine (Pinus sylvestris) and beech (Fagus sylvatica) were oven-dried at 104° C. The blocks were cooled, weighed, and impregnated with the test compound, by a vacuum treatment. Each concentration of the test compounds was applied to 7 replicates. By reweighing after each treatment, the uptake of active ingredient was calculated. Badly treated wood was discarded. For fixation of the active compound, the treated blocks were kept in a closed container for two weeks. The container was opened and the wood was dried for two more weeks. The test blocks were sterilized by gamma-irradiation (1.2 Mrad). Each treated block was placed on a mesh in an inoculated Petri dishes of malt agar, with an untreated (control) block. All the blocks were exposed to fungal attack for eight weeks at 22° C. and 70% relative humidity. At the end of the incubation period, the blocks were freed from adhering mycelium, oven dried at 104° C., allowed to cool, and weighed. The percentage weight loss of each block was calculated. Invalid results, due to waterlogging or insufficient moisture content, were not taken into account. The average weight loss of the treated blocks compared to the control blocks appears in Table 8.

Coniophora puteana = assay: as above; details: eight weeks at 22° C. and 70% relative humidity
Method: as §10

[1] = test system: mixed spore suspension: Aureobasidium pullulans, Aspergillus amstelodami, Ceratocystis pilifera, Cladosporium sp., Penicillium sp., Sclerophomas entoxylina …; assay: Control of molds and sapstain fungi in mini-board test; design: key to Surface score of treated mini-boards, 3 week incubation, 1500 ppm / Surface score of treated mini-boards, 3 week incubation, 2500 ppm: 0: Free of fungal growth; 1: Traces of fungal growth; 2: Little fungal growth; 3: Moderate fungal growth; 4: Vigorous to maximum growth (all surfaces covered with fungal growth)
[2] = test system: blue-stain fungi and molds; assay: Activity against blue-stain fungi and molds in a stick test (threshold concentrations); details: beech sticks, 22° C., 90% relative humidity; for Threshold concentration (ppm), A. niger, score 0 / Threshold concentration (ppm), Aureobasidium, score 0 / Threshold concentration (ppm), Sclerophoma, score 0 / Threshold concentration (ppm), Trichoderma, score 0: minimum concentration to obtain score 0; for Threshold concentration (ppm), A. niger, score 1-2 / Threshold concentration (ppm), Aureobasidium, score 1-2 / Threshold concentration (ppm), Sclerophoma, score 1-2 / Threshold concentration (ppm), Trichoderma, score 1-2: minimum concentration to obtain score 1-2
Summary of the method: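 Wood sticks soaked 3 h in compound serially diluted in 50% ethanol, dried, then inoculated with fungal or spore suspension. Incubated at 22° C and 90% relative humidity until untreated controls grew, then growth scored 0 (none) to 4 (>50% surface covered).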

[3] = higher treatment level, uptake 1136-1222 g.a.i./m3, control blocks lost 26-44%
[4] = lower treatment level, uptake 450-496 g.a.i./m3, control blocks lost 29-38%
[5] = higher treatment level, uptake 1271-1534 g.a.i./m3, control blocks lost 20-37%
[6] = lower treatment level, uptake 526-582 g.a.i./m3, control blocks lost 17-42%

Structure (SMILES) | Score of bactericidal activity, D. hansenii (Debaryomyces hansenii; 10 ppm in tryptose agar) | Score of bactericidal activity, D. hansenii (Debaryomyces hansenii; 100 ppm in tryptose agar) | Threshold value in stick test, TRICHODERMA VIRIDE (Trichoderma viride) | Threshold value in stick test, A[…] (Aspergillus niger) | Threshold value in stick test, SCLEROPHOMA PYTHIOPHILA (Sclerophoma pithyophila) | Threshold value in stick test, AUREOBASIDIUM PULLULANS (Aureobasidium pullulans) | % weight loss, treated blocks (Coriolus) (Coriolus versicolor; [3]) [%] | % weight loss, treated blocks (Coriolus) (Coriolus versicolor; [4]) [%] | % weight loss, treated blocks (Coniophora) (Coniophora puteana; [5]) [%] | % weight loss, treated blocks (Coniophora) (Coniophora puteana; [6]) [%] | also measured
C[S+]1CCON=C1c1ccc(Cl)cc1 (centres unmarked) [Compound 1] | 2 | 2 | 2500-5000 ppm | 1000-2500 ppm | 100-250 ppm | >1000 ppm | – | – | – | – | –
[O-][S+]1CCON=C1c1ccc(Cl)c(Cl)c1 (centres unmarked) [Compound 4] | 2 | 2 | 500-1000 ppm | 250-500 ppm | 50-100 ppm | 500-1000 ppm | 35 | 35 | 0.3 | 0.3 | –
[O-][S+]1CCON=C1c1cccs1 (centres unmarked) [Compound 8] | 2 | 2 | 500-1000 ppm | 250-500 ppm | 50-100 ppm | 250-500 ppm | 3.5 | 24 | 0.7 | 0.9 | Surface score of treated mini-boards, 3 week incubation, 1500 ppm [1]: 0; Surface score of treated mini-boards, 6 week incubation, 1500 ppm [1]: 0.8; Surface score of treated mini-boards, 3 week incubation, 2500 ppm [1]: 0; Surface score of treated mini-boards, 6 week incubation, 2500 ppm [1]: 0.4; Threshold concentration (ppm), A. niger, score 0 [2]: 1000 ppm; Threshold concentration (ppm), A. niger, score 1-2 [2]: 250-500 ppm; Threshold concentration (ppm), Aureobasidium, score 0 [2]: >1000 ppm; Threshold concentration (ppm), Aureobasidium, score 1-2 [2]: 250-500 ppm; Threshold concentration (ppm), Sclerophoma, score 0 [2]: 100 ppm; Threshold concentration (ppm), Sclerophoma, score 1-2 [2]: 50-100 ppm; Threshold concentration (ppm), Trichoderma, score 0 [2]: 1000 ppm; Threshold concentration (ppm), Trichoderma, score 1-2 [2]: 500-1000 ppm
CC(=O)c1ccc(C2=NOCC[S+]2[O-])cc1 (centres unmarked) [Compound 14] | 0 | 2 | – | – | – | – | – | – | – | – | –
C[S+]1CCON=C1c1cc(Cl)cc(Cl)c1 (centres unmarked) [Compound 19] | – | – | <250 ppm | 250-500 ppm | 250-500 ppm | 250-500 ppm | 87 | 35 | −0.3 | 0.9 | –
C[S+]1CCON=C1c1ccc(C(F)(F)F)cc1 (centres unmarked) [Compound 25] | – | – | <250 ppm | <250 ppm | 50-100 ppm | 250-500 ppm | 21 | 37 | −0.8 | −0.7 | –
O=S1(=O)CCON=C1c1cccs1 [Compound 34] | – | – | – | – | – | – | – | – | – | – | Surface score of treated mini-boards, 3 week incubation, 1500 ppm [1]: 0; Surface score of treated mini-boards, 6 week incubation, 1500 ppm [1]: 2.4; Surface score of treated mini-boards, 3 week incubation, 2500 ppm [1]: 0; Surface score of treated mini-boards, 6 week incubation, 2500 ppm [1]: 2.4; Threshold concentration (ppm), A. niger, score 0 [2]: 500 ppm; Threshold concentration (ppm), A. niger, score 1-2 [2]: <250 ppm; Threshold concentration (ppm), Aureobasidium, score 0 [2]: >1000 ppm; Threshold concentration (ppm), Aureobasidium, score 1-2 [2]: 250-500 ppm; Threshold concentration (ppm), Sclerophoma, score 0 [2]: 100 ppm; Threshold concentration (ppm), Sclerophoma, score 1-2 [2]: <50 ppm; Threshold concentration (ppm), Trichoderma, score 0 [2]: 2500 ppm; Threshold concentration (ppm), Trichoderma, score 1-2 [2]: 500-1000 ppm
